{
  "source": "patent US7728128B2",
  "about": "“Dibenzo[c,h][1,5]naphthyridines and their use as DNA probes” (Institut National de la Sante et de la Recherche Medicate …, priority 2006, dated 2010)",
  "key": {"live mouse fibroblasts": {"tested_on": "live mouse fibroblasts", "assay": "photoactivation of nuclear fluorescence in live cells (time-lapse video microscopy)", "format": "cell-based", "details": "5 μM, continuous illumination, Alexa488/FITC filter", "description": "Compound I at 5 μM was added directly into the cell medium 10 min before observation in an inverted microscope Zeiss Axiovert 200M with a 100 W mercury lamp. Time lapse images were acquired using CoolSnap HQ (Photometrics, Inc.) black and white camera driven by the Metamorph software (Universal Imaging). All experiments were carried out using 40× or 63× (FIGS. 1C and D) oil immersion Apochromat Zeiss objectives. To measure the fluorescence intensities, an oval region was drawn inside of each nucleus using Metamorph software and integrated intensities (nuclear surface multiplied by the average pixel value) were logged for each image.\nTo quantify this effect, live mouse fibroblasts were incubated in the presence of 5 μM compound I and time-lapse video microscopy was used to film the cells. Nuclear fluorescence develops slowly in the nuclei of cells treated with compound I and illuminated continuously using a standard Alexa488/FITC filter set (475AF40, 535AF45) (FIG. 5A). Fluorescence peaked after 8 min of illumination and then started to fade (FIG. 5C), most likely reflecting the “bleaching” of compound I. The photoactivation concerned only the cells in the illuminated field, as nuclei of cells immediately outside of the illuminated field remained imperceptible (non-fluorescent). […]"}, "[1]": {"tested_on": "Methanol-fixed primary human fibroblasts", "assay": "nuclear fluorescence in fixed cells under continuous illumination", "format": "cell-based", "description": "Primary human skin fibroblasts were grown on poly-D-lysine-coated glass coverslips and fixed in cold (−20° C.) anhydrous methanol for 15 min. Samples were re-hydrated in PBS (150 mM NaCl, 20 mM Na-phosphate, pH 7.2), rinsed with 10% PBS (diluted with water) and stained with 120 μM compound I in 10% PBS for 15 min at room temperature in the dark. Samples were mounted, without washing, using the FluorSave™ mounting medium (Calbiochem) or Mowiol and analysed within 3 hours. For image acquisition (FIG. 5B,D) cells were illuminated continuously (open shutter) for 30 min using an Omega filter set XF100-2 (see above). […] Fluorescence of each region at the last time point was taken as 100% and fluorescence intensities at the same region at previous time points (frames) were calculated using Microsoft Excel software.\nTo quantify this effect, live mouse fibroblasts were incubated in the presence of 5 μM compound I and time-lapse video microscopy was used to film the cells. Nuclear fluorescence develops slowly in the nuclei of cells treated with compound I and illuminated continuously using a standard Alexa488/FITC filter set (475AF40, 535AF45) (FIG. 5A). […] To test this possibility, the inventors stained nuclei of fixed cells with compound I and measured nuclear fluorescence during a continuous 30 min illumination. […]"}, "plasmid DNA": {"tested_on": "plasmid DNA", "assay": "fluorescence of free molecules before and after addition of plasmid DNA", "format": "physicochemical", "design": "Fluorescence maxima free dye / Fluorescence maxima DNA bound dye: unit not given beside the values", "description": "(§1) Plasmid dsDNA was purified using a Qiagen Maxiprep kit and used in the supercoiled form for absorption and fluorescence studies. E. coli total RNA was bought from Ambion, dA/dT and dG/dC homopolymers were purchased from Amersham Biosciences. Calf thymus (CT) high-molecular weight DNA and Hoechst 33258 were obtained from Sigma-Aldrich. Ethidium bromide was purchased from Amresco.\n(§2) Spectrometry and fluorimetry were performed using a SpectraMax384 (Molecular Devices) and a Luminescence Spectrometer LS50B (Perkin Elmer). Fluorescence emission of compound I in complex with DNA and RNA was measured in 50 mM Na phosphate buffer, pH 7.2 at room temperature. Before use, total E. coli RNA was heated to 100° C. for 1 min and immediately transferred on ice for 5 min before mixing with compound I solution. All measurements were carried out at room temperature (20-23° C.) in solutions protected from light and incubated for ˜10-15 min after dilution. The units of b/dye and bp/dye are defined as moles of RNA bases or DNA base pairs per mole of dye. Quantum yield was measured using quinine sulphate as standard as described in (Iupac Commission on Photochemistry, EPA Newsletter of November 1986, 21-29) using FLUOROMAX-3 Spex Spectrofluorometer (HORIBA) and UVIKON XL Spectrophotometer (SECOMAM).\nAlthough compound I also stains mitotic chromosomes (FIG. 1D), theoretically it was possible that it binds specifically to DNA-associated proteins (for example histones) rather than to nucleic acids. To resolve this issue, the absorption and emission spectra of free compound I before and after addition of dsDNA were recorded. […] Molar extinction coefficient (EC) of free compound I at 391 nm was measured at 10,800 cm^−1 M^−1. In the presence of ds plasmid DNA the absorption peaks of compound I at 373 and 391 nm decreased, and a new peak appears with a maximum at 435 nm (FIG. 1E). An overlay of the absorption spectra in complex with dsDNA at different bp per dye ratios gives a single isosbestic point at 398 nm. Free compound I fluoresces around 438 nm (the exact position of the peak depends on the excitation wavelength). […] At the same time, a new peak evolves with a maximum around 484 nm (FIG. 1F). The exact maximum of fluorescence of compound I/DNA complexes varies insignificantly as a function of the dye/bp ratio and/or base pairs composition of the nucleic acids. […] The quantum yield for compound I (excited at 435 nm) at 5 μM in 50 mM Na-phosphate, pH 7.2, was determined to be 2.7% for free dye and 13.8% in admixture with 50 μM CT DNA.\nTo get a further insight into how the structural properties of compound I contribute to its binding to DNA, the inventors analysed fourteen structural analogues present in the compound library. Although several of these compounds are fluorescent in vivo, this property went undetected in the initial screen most likely due to the latency period before the appearance of the signal (see below). To evaluate the activity of compound I-like molecules three tests were used: (1) in vivo, the inventors incubated human fibroblasts in the presence of the molecules and scored nuclear fluorescence in the microscope; (2 and 3) in vitro, the inventors looked at the absorption and fluorescence of free molecules before and after addition of plasmid DNA. […] With the exception of compound I and analogues 8 and 12, accurate in vitro measurement of the fluorescence intensities was impossible because the emission peaks for the free molecules were too close to that for the DNA-bound dye. This affected the height of the dye/DNA peaks."}, "[2]": {"tested_on": "dA/dT and dG/dC homopolymers", "assay": "fluorescence and absorption with dA/dT and dG/dC homopolymers", "format": "binding", "description": "as §1, §2\nMany intercalating dyes and minor groove-binding DNA dyes can interact differently with dA/dT or dG/dC DNA tracts. […] To investigate the properties of compound I when bound to different DNA tracts, the inventors examined its fluorescence in admixture with an excess of plasmid DNA and either dA/dT or dG/dC homopolymers. […] The peak at 484 nm was much more pronounced when plasmid DNA was replaced by the dA/dT homopolymers (see also FIG. 1F). […] In FIG. 3C, the graphs show emission spectra upon excitation at 371 nm to allow plotting the emission of free compound I. Similar results were obtained when exciting DNA/compound I complexes at 391 and 435 nm."}},
  "data": [
    {"smiles": "COc1ccc2c(c1)c(C)nc1c3ccc(OC)cc3c(NCCCN(C)C)nc21", "note": "[Compound I, N′-(2,8-dimethoxy-12-methyl-dibenzo[c,h][1,5]naphthyridin-6-yl)-N,N-dimethyl-propane-1,3-diamine]", "values": [
      {"measurement": "illumination time to peak/plateau of nuclear fluorescence", "setting": "live mouse fibroblasts", "value": 8, "unit": "min"},
      {"measurement": "average pixel values in a representative nucleus", "setting": "[1]; plane (1), start of 30 min illumination", "value": 512},
      {"measurement": "average pixel values in a representative nucleus", "setting": "[1]; plane (1800), end of 30 min illumination", "value": 1434},
      {"measurement": "emission maximum of new peak upon DNA binding", "setting": "plasmid DNA; DNA-bound", "value": "around 484 nm"},
      {"measurement": "hypsochromic shift of the 438 nm emission peak upon DNA binding", "setting": "plasmid DNA; DNA-bound", "value": 426, "unit": "nm"},
      {"measurement": "Fluorescence maxima DNA bound dye", "setting": "plasmid DNA; after addition of plasmid DNA", "value": 484},
      {"measurement": "emission peak of free dye", "setting": "plasmid DNA; free compound", "value": "around 438 nm"},
      {"measurement": "Fluorescence maxima free dye", "setting": "plasmid DNA; free molecule, before addition of plasmid DNA", "value": 438},
      {"measurement": "emission maximum", "setting": "plasmid DNA; plasmid DNA at bp/dye ratio 40", "value": 472, "unit": "nm"},
      {"measurement": "reduction of fluorescence peak at 438 nm with dG/dC homopolymer", "setting": "[2]; 1 μM dye, homopolymer at 40 μM", "value": 12.7, "unit": "fold"},
      {"measurement": "fluorescence at 484 nm with dG/dC homopolymer, lower compared to dA/dT", "setting": "[2]; 1 μM dye, homopolymers at 40 μM", "value": 9.5, "unit": "fold"},
      {"measurement": "emission maximum", "setting": "[2]; dA/dT homopolymers at bp/dye ratio 40", "value": 484, "unit": "nm"},
      {"measurement": "difference in fluorescence bound to dA/dT and dG/dC homopolymers", "setting": "[2]; dye/bp ratio 8, 5 μM dye, emission 484 nm, excitation 435 nm", "value": 23, "unit": "fold"},
      {"measurement": "absorption at 435 nm, dG/dC superior to dA/dT", "setting": "[2]; higher bp/dye ratios", "value": "~30", "unit": "%"}
    ]}
  ]
}
